Results as given in article PMC12133982, “Predominant T-cell epitopes of SARS-CoV-2 restricted by multiple prevalent HLA-B and HLA-C allotypes in Northeast Asia” (Frontiers in Immunology, 2025).
Values joined by “and” are separate entries in the source; they are usually repeats but may differ in a detail not shown here. Equal entries are not always repeated. Peptide text beside a SMILES is read from it.

Legend:
HLA-B4403 = HLA-B4403 (Homo sapiens, UniProt P01889, A223V/A65T/A93T/A95T/D201E/D98Y/E176V/E187L/E204Q/E69K/G107R/H137Y/K202T/L105A/L119I/N104T/N87E/Q56L/Q94N/R106L/R155S/R180L/S101N/S121R/S35A/S48T/T118I/V36M/W191S/Y140D/Y91S); test: Competitive peptide binding assay, CIR-B4403; conditions: HMy2.CIR-B4403 cells, reference Cy5-CYMEAVAL, class from inhibition at 5 and 15 μM, flow cytometry MFI; read-out: Binding affinity with HLA-B4403
Method: (§1) Then, competitive peptide binding assays were performed.

HLA-B1302 = HLA-B1302 (Homo sapiens, UniProt P01889, A65T/A93T/A95T/D138N/D201E/D98Y/E176V/E204Q/E69M/E70A/G107R/K202T/L105A/L119W/N104T/N87E/Q94N/R106L/R155S/R169L/R180L/S101N/S121T/S35A/S48T/V127L/V36M/Y140L/Y91S); test: Competitive peptide binding assay, CIR-B1302; conditions: HMy2.CIR-B1302 cells, reference Cy5-MMWYWGPSL, class from inhibition at 5 and 15 μM, flow cytometry MFI; read-out: Binding affinity with HLA-B1302
Method: as §1

HLA-B1301 = HLA-B1301 (Homo sapiens, UniProt P01889, A65T/A93T/A95T/D138N/D201E/D98Y/E176V/E204Q/E69M/E70A/G107R/K202T/L105A/L119I/N104T/N87E/Q94N/R106L/R155S/R169L/R180L/S101N/S121R/S35A/S48T/T118I/V127L/V36M/Y140L/Y91S); test: Competitive peptide binding assay, CIR-B1301; conditions: HMy2.CIR-B1301 cells, reference Cy5-[…], class from inhibition at 5 and 15 μM, flow cytometry MFI; read-out: Binding affinity with HLA-B1301
Method: as §1

HLA-B4601 = HLA-B4601 (Homo sapiens, UniProt P01889, A329T/A93R/C349S/D201E/E100V/E187L/E204Q/E69M/E70A/I90K/K202T/N87E/R155S/R180W/S121R/S35A/S48A/V306I/V36M/Y140S); test: Competitive peptide binding assay, CIR-B4601; conditions: for IC50: HMy2.CIR-B4601 cells, reference Cy5-[…], class from inhibition at 5 and 15 μM, flow cytometry MFI, read-out: Binding affinity with HLA-B4601
Method: as §1

HLA-B1501 = HLA-B1501 (Homo sapiens, UniProt P01889, A329T/A93T/A95T/C349S/D201E/D98Y/E187L/E204Q/E69M/E70A/K202T/N87E/Q94N/R155S/R180W/S121R/S35A/S48A/V306I/V36M/Y140S/Y91S); test: Competitive peptide binding assay, CIR-B1501; conditions: HMy2.CIR-B1501 cells, reference Cy5-[…], class from inhibition at 5 and 15 μM, flow cytometry MFI; read-out: Binding affinity with HLA-B1501
Method: as §1

HLA-B3501 = HLA-B3501 (Homo sapiens, UniProt P01889, A329T/A93T/A95T/C349S/D201E/D98Y/E176V/E187L/E204Q/E69T/I218V/K202T/L119I/Q94N/R155S/R180L/S121R/S35A/S48A/T118I/V127L/V306I/V36M/Y140S/Y91F); test: Competitive peptide binding assay, CIR-B3501; conditions: HMy2.CIR-B3501 cells, reference Cy5-[…], class from inhibition at 5 and 15 μM, flow cytometry MFI; read-out: Binding affinity with HLA-B3501
Method: as §1

HLA-B5801 = HLA-B5801 (Homo sapiens, UniProt P01889, A329T/C349S/D201E/D98Y/E176V/E187L/E204Q/E69T/G107R/I218V/I90N/K202T/L105A/L119I/N104I/N87E/Q89R/Q94S/R106L/R155S/R180L/R86G/S101N/S121R/S35A/S48A/T118I/V127L/V306I/V36M/Y140S/Y91M); test: Competitive peptide binding assay, CIR-B5801; conditions: HMy2.CIR-B5801 cells, reference Cy5-[…], class from inhibition at 5 and 15 μM, flow cytometry MFI; read-out: Binding affinity with HLA-B5801
Method: as §1

HLA-B1502 = HLA-B1502 (Homo sapiens, UniProt P01889, A329T/A93T/A95T/C349S/D201E/D98Y/E187L/E204Q/E69M/E70A/H137Y/K202T/L119I/Q94N/R155S/R180L/S121R/S35A/S48A/T118I/V306I/V36M/Y140S/Y91S); test: Competitive peptide binding assay, CIR-B1502; conditions: HMy2.CIR-B1502 cells, reference Cy5-[…], class from inhibition at 5 and 15 μM, flow cytometry MFI; read-out: Binding affinity with HLA-B1502
Method: as §1

HLA-B0702 = molecular target: T1, HLA-B0702 (Homo sapiens, UniProt P01889); test: Competitive peptide binding assay, CIR-B0702; conditions: HMy2.CIR-B0702 cells, reference Cy5-[…], class from inhibition at 5 and 15 μM, flow cytometry MFI
T1 construct: expressed in transfected cells; host or cells: HMy2.CIR
Method: as §1

HLA-B4001 = HLA-B4001 (Homo sapiens, UniProt P01889, A65T/A93T/A95T/D138N/D98Y/E176V/E69K/N87E/Q56L/Q94N/R180L/S121R/S35A/S48T/T167S/V36M/W171L/Y33H/Y91S); test: Competitive peptide binding assay, CIR-B4001; conditions: HMy2.CIR-B4001 cells, reference Cy5-[…], class from inhibition at 5 and 15 μM, flow cytometry MFI; read-out: Binding affinity with HLA-B4001
Method: as §1

Compound	IC50 (HLA-B4403) [µM]	IC50 (HLA-B1302)	IC50 (HLA-B1301) [µM]	IC50 (HLA-B4601) [µM]	IC50 (HLA-B1501) [µM]	IC50 (HLA-B3501) [µM]	IC50 (HLA-B5801) [µM]	IC50 (HLA-B1502) [µM]	IC50 (HLA-B0702) [µM]	IC50 (HLA-B4001) [µM]	inhibition at 5 µM (HLA-B4601; read-out: Inhibition % of Cy5-reference peptide binding, CIR-B4601, 5μM peptide) [%]	inhibition at 15 µM (HLA-B4601; read-out: Inhibition % of Cy5-reference peptide binding, CIR-B4601, 15μM peptide) [%]
CC(C)C[C@H](NC(=O)[C@H](CC(N)=O)NC(=O)[C@H](CCCCN)NC(=O)[C@@H](NC(=O)[C@H](CCCNC(=N)N)NC(=O)[C@H](CO)NC(=O)[C@H](Cc1ccc(O)cc1)NC(=O)[C@@H](NC(=O)[C@@H](N)Cc1ccc(O)cc1)C(C)C)C(C)C)C(=O)O [Epitope Y3] (H-YVYSRVKNL-OH; N-terminus and C-terminus assumed)	< 5	> 15 µM	> 15	> 15	5 to 15	> 15	–	–	–	–	–	–
CC[C@H](C)[C@H](NC(=O)[C@H](CCCNC(=N)N)NC(=O)[C@H](CC(C)C)NC(=O)[C@H](CCSC)NC(=O)[C@H](CC(N)=O)NC(=O)[C@@H]1CCCN1C(=O)[C@H](CCSC)NC(=O)[C@H](C)NC(=O)[C@@H](N)CCCNC(=N)N)C(=O)O [Epitope Y77] (H-RAMPNMLRI-OH; N-terminus and C-terminus assumed)	> 15	< 5 µM	> 15	5 to 15	–	> 15	5 to 15	–	–	–	–	–
CC[C@H](C)[C@H](NC(=O)[C@H](CC(C)C)NC(=O)[C@H](CCC(N)=O)NC(=O)[C@H](CCC(N)=O)NC(=O)[C@@H](NC(=O)[C@@H](NC(=O)[C@H](Cc1ccc(O)cc1)NC(=O)[C@@H](NC(=O)[C@H](CCC(N)=O)NC(=O)[C@@H](N)CC(C)C)[C@@H](C)O)C(C)C)[C@@H](C)O)C(=O)O [Epitope Y118] (H-LQTYVTQQLI-OH; N-terminus and C-terminus assumed)	5 to 15	< 5 µM and 5 to 15 µM	–	> 15	–	> 15	> 15	> 15	–	–	–	–
CSCC[C@H](NC(=O)[C@H](CO)NC(=O)[C@H](CCC(N)=O)NC(=O)[C@H](CCC(N)=O)NC(=O)[C@H](CC(C)C)NC(=O)[C@H](CCC(N)=O)NC(=O)[C@H](CCCCN)NC(=O)[C@H](CO)NC(=O)[C@@H](N)Cc1ccccc1)C(=O)O [Epitope Y135] (H-FSKQLQQSM-OH; N-terminus and C-terminus assumed)	–	–	> 15	< 5	< 5	> 15	5 to 15	–	5 to 15	–	–	–
CSCC[C@H](NC(=O)[C@H](C)NC(=O)[C@@H]1CCCN1C(=O)[C@H](CC(=O)O)NC(=O)[C@H](C)NC(=O)[C@H](C)NC(=O)[C@H](Cc1ccc(O)cc1)NC(=O)[C@@H](NC(=O)[C@@H](N)CC(C)C)C(C)C)C(=O)O [Epitope Y165] (H-LVYAADPAM-OH; N-terminus and C-terminus assumed)	–	–	5 to 15	5 to 15	> 15	< 5	> 15	5 to 15	5 to 15	> 15	–	–
CC(C)C[C@H](NC(=O)[C@H](CC(=O)O)NC(=O)[C@H](C)NC(=O)[C@H](C)NC(=O)[C@@H]1CCCN1C(=O)[C@@H](N)CC(C)C)C(=O)N[C@@H](CC(=O)O)C(=O)N[C@@H](CC(=O)O)C(=O)N[C@@H](Cc1ccccc1)C(=O)O [Epitope Y180] (H-LPAADLDDF-OH; N-terminus and C-terminus assumed)	–	–	> 15	> 15	5 to 15	–	> 15	> 15	> 15	–	–	–
CSCC[C@H](NC(=O)[C@H](C)NC(=O)[C@@H](N)Cc1ccccc1)C(=O)N[C@@H](CCC(N)=O)C(=O)N[C@@H](CCSC)C(=O)N[C@@H](C)C(=O)N[C@@H](Cc1ccc(O)cc1)C(=O)N[C@@H](CCCNC(=N)N)C(=O)N[C@@H](Cc1ccccc1)C(=O)O [Epitope Y189]	–	–	5 to 15	< 5	> 15	5 to 15	> 15	> 15	< 5	–	74.8	92.9
CC(C)C[C@H](NC(=O)[C@H](CC(C)C)NC(=O)[C@@H](NC(=O)[C@@H](NC(=O)[C@@H](NC(=O)[C@H](CCC(N)=O)NC(=O)[C@H](CCC(N)=O)NC(=O)[C@H](CCCCN)NC(=O)[C@@H](N)CCCCN)[C@@H](C)O)C(C)C)[C@@H](C)O)C(=O)O [Epitope Y196] (H-KKQQTVTLL-OH; N-terminus and C-terminus assumed)	–	5 to 15 µM	> 15	< 5	> 15	> 15	> 15	–	> 15	–	–	–
CC(C)C[C@H](NC(=O)[C@H](CC(C)C)NC(=O)[C@H](C)NC(=O)[C@H](CCC(N)=O)NC(=O)[C@H](CCCNC(=N)N)NC(=O)[C@@H](NC(=O)[C@H](CCCNC(=N)N)NC(=O)[C@H](CCC(=O)O)NC(=O)CN)C(C)C)C(=O)O [Epitope Y202] (H-GERVRQALL-OH; N-terminus and C-terminus assumed)	–	> 15 µM	> 15	5 to 15	> 15	> 15	> 15	> 15	> 15	–	–	–
CC[C@H](C)[C@H](NC(=O)[C@@H](NC(=O)[C@H](CC(C)C)NC(=O)[C@H](CCC(=O)O)NC(=O)[C@H](CO)NC(=O)[C@H](CCC(=O)O)NC(=O)[C@@H](N)CC(C)C)C(C)C)C(=O)NCC(=O)N[C@@H](C)C(=O)N[C@H](C(=O)O)C(C)C [Epitope Y211] (H-LESELVIGAV-OH; N-terminus and C-terminus assumed)	–	> 15 µM	> 15	> 15	5 to 15	> 15	> 15	> 15	> 15	5 to 15	–	–
CC[C@H](C)[C@H](N)C(=O)N[C@@H](C)C(=O)N[C@@H](CCSC)C(=O)N[C@@H](C)C(=O)N[C@@H](CS)C(=O)N[C@@H](CC(C)C)C(=O)N[C@H](C(=O)NCC(=O)N[C@@H](CC(C)C)C(=O)O)C(C)C [Epitope Y253] (H-IAMACLVGL-OH; N-terminus and C-terminus assumed)	5 to 15	5 to 15 µM	5 to 15	< 5	> 15	> 15	> 15	> 15	–	–	–	–
